Laboratory results taken from patent US10448639B2, “Fungicidal pyrazoles” (FMC CORPORATION, priority 2009, dated 2019).
Where two headings read alike, the source gives them in different places. Marks after values point to notes of the source that are not given here.

Experiments:
[1] = system: Septoria nodorum; experiment: Test F: Septoria glume blotch, preventive spray on wheat seedlings, visual disease rating; conditions: for Test F rating (% disease control) / Test F disease control rating: 100 = 100% disease control; for Test F disease control rating: 0 = no disease control relative to controls; for pest or weed control at 200 µg/mL: Parastagonospora nodorum, in Triticum aestivum, 192 h
[2] = system: Puccinia recondita f. sp. tritici; experiment: Test H: wheat leaf rust, curative spray on inoculated wheat seedlings, visual disease rating; conditions: for Test H rating (% disease control) / Test H disease control rating: 100 = 100% disease control; for Test H disease control rating: sprayed after inoculation, 0 = no disease control relative to controls; for pest or weed control at 200 µg/mL: 144 h
[3] = system: Puccinia recondita f. sp. tritici; experiment: Test I: wheat leaf rust, preventive spray on wheat seedlings, visual disease rating; conditions: for Test I rating (% disease control) / Test I disease control rating: 100 = 100% disease control; for Test I disease control rating: sprayed the day before inoculation, 0 = no disease control relative to controls; for pest or weed control at 200 µg/mL: 192 h
[4] = system: Erysiphe graminis f sp. tritici; experiment: Test J: wheat powdery mildew, preventive spray on wheat seedlings, visual disease rating; conditions: for Test J rating (% disease control) / Test J disease control rating: 100 = 100% disease control; for Test J disease control rating: sprayed the day before inoculation, 0 = no disease control relative to controls; for pest or weed control at 200 µg/mL: Blumeria graminis, in Triticum aestivum, 192 h
[5] = system: Septoria tritici; experiment: Test G: wheat leaf blotch, preventive spray on wheat seedlings, visual disease rating; conditions: for Test G rating (% disease control) / Test G disease control rating: 100 = 100% disease control; for Test G disease control rating: sprayed the day before inoculation, 0 = no disease control relative to controls; for pest or weed control at 200 µg/mL: Zymoseptoria tritici, in Triticum aestivum, 504 h
[6] = system: Botrytis cinerea; experiment: Test B: tomato Botrytis, preventive spray on tomato seedlings, visual disease rating; conditions: for Test B rating (% disease control) / Test B disease control rating: 100 = 100% disease control; for Test B disease control rating: 0 = no disease control relative to controls; for pest or weed control at 200 µg/mL: Botrytis cinerea, in Solanum lycopersicum, 120 h
[7] = system: Alternaria solani; experiment: Test C: tomato early blight, preventive spray on tomato seedlings, visual disease rating; conditions: for Test C rating (% disease control) / Test C disease control rating: 100 = 100% disease control; for Test C disease control rating: 0 = no disease control relative to controls; for pest or weed control at 200 µg/mL: Alternaria solani, in Solanum lycopersicum, 168 h
[8] = Septoria glume blotch on wheat, preventive spray, 0 = no control
[9] = wheat leaf rust, curative spray, 0 = no control
[10] = wheat leaf rust, preventive spray, 0 = no control
[11] = wheat powdery mildew, preventive spray, 0 = no control
[12] = wheat leaf blotch, preventive spray, 0 = no control
[13] = tomato Botrytis, preventive spray, 0 = no control
[14] = tomato early blight, preventive spray, 0 = no control
[15] = Septoria glume blotch, 0 = no control relative to controls
[16] = wheat leaf rust, curative, 0 = no control relative to controls
[17] = wheat leaf rust, preventive, 0 = no control relative to controls
[18] = wheat powdery mildew, 0 = no control relative to controls
[19] = wheat leaf blotch, 0 = no control relative to controls
[20] = tomato Botrytis, 0 = no control relative to controls
[21] = tomato early blight, 0 = no control relative to controls

COc1cc(F)c(-c2c(C)nn(C)c2Nc2ccc(F)c(F)c2)c(F)c1 [compound 48]
Test F rating (% disease control) [1, 8]: 0% | Test H rating (% disease control) [2, 9]: 0% | Test I rating (% disease control) [3, 10]: 98% | Test J rating (% disease control) [4, 11]: 98% | Test G rating (% disease control) [5, 12]: 99% | Test B rating (% disease control) [6, 13]: 100% | Test C rating (% disease control) [7, 14]: 78%

COc1cc(F)c(-c2c(C)nn(C)c2Oc2ccc(C)c(OC)c2)c(F)c1 [compound 249]
Test F rating (% disease control) [1, 15]: 0% | Test H rating (% disease control) [2, 16]: 0% | Test I rating (% disease control) [3, 17]: 96% | Test J rating (% disease control) [4, 18]: 100% | Test G rating (% disease control) [5, 19]: 99% | Test B rating (% disease control) [6, 20]: 40% | Test C rating (% disease control) [7, 21]: 0%

Cc1nn(C)c(Oc2c(F)cc(C#N)cc2F)c1-c1cccc(Cl)c1Cl [compound 273]
Test F rating (% disease control) [1, 15]: 0% | Test H rating (% disease control) [2, 16]: 0% | Test I rating (% disease control) [3, 17]: 27% | Test J rating (% disease control) [4, 18]: 43% | Test G rating (% disease control) [5, 19]: 72% | Test B rating (% disease control) [6, 20]: 0% | Test C rating (% disease control) [7, 21]: 0%

COc1cc(F)c(-c2c(C)nn(C)c2Oc2ccc(C)c(C#N)c2)c(F)c1 [compound 259]
Test F rating (% disease control) [1, 15]: 0% | Test H rating (% disease control) [2, 16]: 0% | Test I rating (% disease control) [3, 17]: 86% | Test J rating (% disease control) [4, 18]: 97% | Test G rating (% disease control) [5, 19]: 100% | Test B rating (% disease control) [6, 20]: 98% | Test C rating (% disease control) [7, 21]: 9%

Cc1nn(C)c(Nc2ncc(Cl)cc2Cl)c1-c1cccc(Cl)c1Cl [compound 303]
Test F disease control rating ([1]; Septoria glume blotch on wheat): 0% | Test H disease control rating ([2]; wheat leaf rust): 0% | Test I disease control rating ([3]; wheat leaf rust): 92% | Test J disease control rating ([4]; wheat powdery mildew): 71% | Test G disease control rating ([5]; wheat leaf blotch): 98% | Test B disease control rating ([6]; tomato Botrytis): 99% | Test C disease control rating ([7]; tomato early blight): 0%

Cc1nn(C)c(Oc2c(F)cc(C#N)cc2F)c1-c1cc(F)ccc1Cl [compound 276]
Test F rating (% disease control) [1, 15]: 98% | Test H rating (% disease control) [2, 16]: 31% | Test I rating (% disease control) [3, 17]: 100% | Test J rating (% disease control) [4, 18]: 100% | Test G rating (% disease control) [5, 19]: 100% | Test B rating (% disease control) [6, 20]: 100% | Test C rating (% disease control) [7, 21]: 99%

Cc1nn(C)c(Nc2c(F)cc(Br)cc2F)c1-c1ccc(F)cc1F [Compound 364, N-(4-bromo-2,6-difluorophenyl)-4-(2,4-difluorophenyl)-1,3-dimethyl-1H-pyrazol-5-amine]
pest or weed control at 200 µg/mL ([1]; read-out: Test F disease control rating): 88% | pest or weed control at 200 µg/mL ([2]; read-out: Test H disease control rating): 0% | pest or weed control at 200 µg/mL ([3]; read-out: Test I disease control rating): 99% | pest or weed control at 200 µg/mL ([4]; read-out: Test J disease control rating): 100% | pest or weed control at 200 µg/mL ([5]; read-out: Test G disease control rating): 100% | pest or weed control at 200 µg/mL ([6]; read-out: Test B disease control rating): 99% | pest or weed control at 200 µg/mL ([7]; read-out: Test C disease control rating): 97%

Cc1nn(C)c(Nc2ccc(F)cc2)c1-c1c(F)cccc1C(F)(F)F [compound 254]
Test F rating (% disease control) [1, 15]: 0% | Test H rating (% disease control) [2, 16]: 0% | Test I rating (% disease control) [3, 17]: 0% | Test J rating (% disease control) [4, 18]: 64% | Test G rating (% disease control) [5, 19]: 84% | Test B rating (% disease control) [6, 20]: 100% | Test C rating (% disease control) [7, 21]: 0%

Cc1nn(C)c(Oc2cc(F)c(C#N)cc2F)c1-c1ccc(F)cc1Cl [Compound 148, 4-[[4-(2-chloro-4-fluorophenyl)-1,3-dimethyl-1H-pyrazol-5-yl]oxy]-2,5-difluorobenzonitrile]
pest or weed control at 200 µg/mL ([1]; read-out: Test F rating (% disease control)): 100% | pest or weed control at 200 µg/mL ([2]; read-out: Test H rating (% disease control)): 61% | pest or weed control at 200 µg/mL ([3]; read-out: Test I rating (% disease control)): 100% | pest or weed control at 200 µg/mL ([4]; read-out: Test J rating (% disease control)): 99% | pest or weed control at 200 µg/mL ([5]; read-out: Test G rating (% disease control)): 100% | pest or weed control at 200 µg/mL ([6]; read-out: Test B rating (% disease control)): 99% | pest or weed control at 200 µg/mL ([7]; read-out: Test C rating (% disease control)): 99%

Cc1nn(C)c(Oc2c(F)cc(C#N)cc2F)c1-c1c(F)cc(F)cc1F [compound 31]
Test F rating (% disease control), value marked * ([1]; Septoria glume blotch, preventive spray, rating marked with asterisk (different test condition, key not given)): 0* % | Test H rating (% disease control), value marked * ([2]; wheat leaf rust, curative spray, rating marked with asterisk (different test condition, key not given)): 15* % | Test I rating (% disease control), value marked * ([3]; wheat leaf rust, preventive spray, rating marked with asterisk (different test condition, key not given)): 79* % | Test J rating (% disease control), value marked * ([4]; wheat powdery mildew, preventive spray, rating marked with asterisk (different test condition, key not given)): 60* % | Test G rating (% disease control), value marked * ([5]; wheat leaf blotch, preventive spray, rating marked with asterisk (different test condition, key not given)): 47* % | Test B rating (% disease control), value marked * ([6]; tomato Botrytis, preventive spray, rating marked with asterisk (different test condition, key not given)): 99* % | Test C rating (% disease control), value marked * ([7]; tomato early blight, preventive spray, rating marked with asterisk (different test condition, key not given)): 98* %

Cc1nn(C)c(Nc2ncc(Cl)cc2Cl)c1-c1c(F)cccc1Cl [compound 252]
Test F rating (% disease control) [1, 15]: 0% | Test H rating (% disease control) [2, 16]: 0% | Test I rating (% disease control) [3, 17]: 100% | Test J rating (% disease control) [4, 18]: 100% | Test G rating (% disease control) [5, 19]: 100% | Test B rating (% disease control) [6, 20]: 100% | Test C rating (% disease control) [7, 21]: 97%

Cc1nn(C)c(Oc2ccc(C#N)cc2Cl)c1-c1ccc(Cl)cc1Cl [compound 362]
Test F disease control rating ([1]; Septoria glume blotch on wheat): 0% | Test H disease control rating ([2]; wheat leaf rust): 0% | Test I disease control rating ([3]; wheat leaf rust): 96% | Test J disease control rating ([4]; wheat powdery mildew): 96% | Test G disease control rating ([5]; wheat leaf blotch): 100% | Test B disease control rating ([6]; tomato Botrytis): 100% | Test C disease control rating ([7]; tomato early blight): 0%

Cc1nn(Cc2ccccc2)c(Oc2c(F)cc([N+](=O)[O-])cc2F)c1-c1c(F)cc(F)cc1F [compound 53]
Test F rating (% disease control) [1, 8]: 0% | Test H rating (% disease control) [2, 9]: 0% | Test I rating (% disease control) [3, 10]: 0% | Test J rating (% disease control) [4, 11]: 0% | Test G rating (% disease control) [5, 12]: 0% | Test B rating (% disease control) [6, 13]: 0% | Test C rating (% disease control) [7, 14]: 0%

Cc1nn(C)c(Nc2ccc(F)cc2Cl)c1-c1ccc(Cl)cc1Cl [compound 354]
Test F disease control rating ([1]; Septoria glume blotch on wheat): 0% | Test H disease control rating ([2]; wheat leaf rust): 82% | Test I disease control rating ([3]; wheat leaf rust): 98% | Test J disease control rating ([4]; wheat powdery mildew): 100% | Test G disease control rating ([5]; wheat leaf blotch): 100% | Test B disease control rating ([6]; tomato Botrytis): 99% | Test C disease control rating ([7]; tomato early blight): 0%

Cc1nn(C)c(Nc2cc(F)ccc2F)c1-c1c(F)cc(C#N)cc1F [compound 137]
Test F rating (% disease control) [1, 8]: 78% | Test H rating (% disease control) [2, 9]: 8% | Test I rating (% disease control) [3, 10]: 100% | Test J rating (% disease control) [4, 11]: 100% | Test G rating (% disease control) [5, 12]: 99% | Test B rating (% disease control) [6, 13]: 96% | Test C rating (% disease control) [7, 14]: 97%

COc1cc(F)c(-c2c(C)nn(C)c2Oc2c(F)cc(Br)cc2F)c(F)c1 [compound 90]
Test F rating (% disease control) [1, 8]: 84% | Test H rating (% disease control) [2, 9]: 0% | Test I rating (% disease control) [3, 10]: 98% | Test J rating (% disease control) [4, 11]: 100% | Test G rating (% disease control) [5, 12]: 100% | Test B rating (% disease control) [6, 13]: 99% | Test C rating (% disease control) [7, 14]: 95%

Cc1nn(C)c(Nc2ccc(F)cc2Br)c1-c1c(Cl)cccc1Cl [compound 340]
Test F disease control rating ([1]; Septoria glume blotch on wheat): 0% | Test H disease control rating ([2]; wheat leaf rust): 0% | Test I disease control rating ([3]; wheat leaf rust): 91% | Test J disease control rating ([4]; wheat powdery mildew): 100% | Test G disease control rating ([5]; wheat leaf blotch): 100% | Test B disease control rating ([6]; tomato Botrytis): 99% | Test C disease control rating ([7]; tomato early blight): 0%

COc1cc(F)c(-c2c(C)nn(C)c2Oc2ccc(Br)c(C#N)c2)c(F)c1 [compound 258]
Test F rating (% disease control) [1, 15]: 0% | Test H rating (% disease control) [2, 16]: 0% | Test I rating (% disease control) [3, 17]: 68% | Test J rating (% disease control) [4, 18]: 90% | Test G rating (% disease control) [5, 19]: 89% | Test B rating (% disease control) [6, 20]: 41% | Test C rating (% disease control) [7, 21]: 9%

Cc1nn(C)c(Nc2ccc(F)c(Cl)c2)c1-c1c(F)cc(C#N)cc1F [compound 144]
Test F rating (% disease control) [1, 8]: 40% | Test H rating (% disease control) [2, 9]: 0% | Test I rating (% disease control) [3, 10]: 98% | Test J rating (% disease control) [4, 11]: 91% | Test G rating (% disease control) [5, 12]: 99% | Test B rating (% disease control) [6, 13]: 99% | Test C rating (% disease control) [7, 14]: 9%
